The source of these data is publication PMC6401477, “Quorum Sensing Signal Selectivity and the Potential for Interspecies Cross Talk” (mBio, 2019).

Read-outs that look alike come from different tables or passages of the source. Where only a bound is given, the exact number is not on record here.

As usually defined, the EC50 is the concentration that produces a half-maximal response.

Common to all, as to experiment: cell-based
For assay [1], the target named is T1, LasR (Pseudomonas aeruginosa, UniProt P25084).
T1 construct: expressed in transfected cells; host or cells: E. coli 5α (DH5α) with pJNL and pPROBE-PrsaL
T1 sequence (P25084 1-239): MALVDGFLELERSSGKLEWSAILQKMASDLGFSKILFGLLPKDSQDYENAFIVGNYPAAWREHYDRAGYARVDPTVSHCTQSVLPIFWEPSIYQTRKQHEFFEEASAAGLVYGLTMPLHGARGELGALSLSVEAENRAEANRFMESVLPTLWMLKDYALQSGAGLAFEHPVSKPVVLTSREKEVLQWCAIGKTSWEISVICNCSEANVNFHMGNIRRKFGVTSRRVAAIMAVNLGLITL
Also noted: species or system P. aeruginosa. The following applies: receptor expressed in E. coli (DH5α), arabinose-induced.

For assay [2], the target named is T2, BtaR1 (Burkholderia thailandensis, UniProt Q2T543).
T2 sequence (Q2T543 1-239): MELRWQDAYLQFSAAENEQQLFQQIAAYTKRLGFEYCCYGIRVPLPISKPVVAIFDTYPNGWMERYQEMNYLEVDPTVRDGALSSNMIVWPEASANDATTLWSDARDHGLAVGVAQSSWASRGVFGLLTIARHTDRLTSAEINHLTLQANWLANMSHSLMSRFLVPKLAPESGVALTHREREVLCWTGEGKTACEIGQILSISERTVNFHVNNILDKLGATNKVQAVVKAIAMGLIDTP
Also noted: species or system B. thailandensis.

Assay [3] addresses T3, CviR (Chromobacterium violaceum, UniProt D3W065).
T3 construct: Violacein was used as a measure of CviR activity in C. violaceum (CV026); endogenous in cells; host or cells: C. violaceum CV026
The following applies: C. violaceum CV026, violacein; read-out: EC50 CviR in native host.

Assay [4] addresses T1, LasR. Particulars: P. aeruginosa PAO-SC4 (pPROBE-PrsaL); mean ± SEM, n ≥ 3; read-out: EC50 LasR in native host.
Assay [5] has as its target T4, LuxR (Aliivibrio fischeri, UniProt P12746).
T4 construct: endogenous in cells; host or cells: V. fischeri MJ215
T4 sequence (P12746 1-250): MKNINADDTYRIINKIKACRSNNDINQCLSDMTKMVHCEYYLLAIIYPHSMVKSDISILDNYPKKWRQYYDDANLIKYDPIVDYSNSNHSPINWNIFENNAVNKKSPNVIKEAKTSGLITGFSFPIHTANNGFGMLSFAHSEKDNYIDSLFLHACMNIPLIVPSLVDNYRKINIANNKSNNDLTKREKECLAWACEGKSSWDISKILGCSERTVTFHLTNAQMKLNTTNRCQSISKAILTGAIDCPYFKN
The following applies: V. fischeri MJ215, luminescence; read-out: EC50 LuxR in native host.

The target in assay [6] is T5, QscR (Pseudomonas aeruginosa, UniProt G3XD77).
T5 construct: expressed in transfected cells; host or cells: E. coli 5α (DH5α) with pJNQ and pPROBE-PPA1897
T5 sequence (G3XD77 1-237): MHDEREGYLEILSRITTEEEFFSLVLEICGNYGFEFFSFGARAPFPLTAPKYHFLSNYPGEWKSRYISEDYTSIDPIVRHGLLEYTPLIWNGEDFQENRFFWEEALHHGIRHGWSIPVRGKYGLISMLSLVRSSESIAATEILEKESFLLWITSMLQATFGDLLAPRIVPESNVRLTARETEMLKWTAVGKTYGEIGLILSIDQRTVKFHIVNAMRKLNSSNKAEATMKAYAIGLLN
Also noted: species or system P. aeruginosa. The following applies: receptor expressed in E. coli (DH5α), arabinose-induced.

The target in assay [7] is T6, RhlR (Pseudomonas aeruginosa, UniProt P54292).
T6 sequence (P54292 1-241): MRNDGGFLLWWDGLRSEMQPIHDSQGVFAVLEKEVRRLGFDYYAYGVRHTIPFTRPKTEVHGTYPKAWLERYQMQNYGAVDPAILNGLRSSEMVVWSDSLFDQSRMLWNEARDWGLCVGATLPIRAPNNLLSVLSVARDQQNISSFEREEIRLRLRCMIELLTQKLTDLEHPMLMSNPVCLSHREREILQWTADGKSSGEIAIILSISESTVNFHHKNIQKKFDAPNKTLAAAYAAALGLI
The assay is classed as cell-based, P. aeruginosa. The following applies: for EC50: receptor expressed in E. coli (DH5α), arabinose-induced.

The target in assay [8] is T2, BtaR1. Also on record: species or system B. thailandensis. The source holds these as a separate data set.
Assay [9] concerns the target T5, QscR. Particulars: P. aeruginosa PAO-SC4 (pPROBE-PPA1897); read-out: EC50 QscR in native host.

`CCCCCC(=O)CC(=O)N[C@H]1CCOC1=O` [3OC8-HSL]: the EC50 in assay [1] was found to be 17.4 ± 6.5 µM; in [2], 1.1 ± 0.29 µM; in assay [3] it was 5.47 ± 0.27 µM; in [4] it was 59.1 ± 7.5 µM; in assay [5], 0.49 ± 0.11 µM.

For the molecule `CCCCCCCC(=O)CC(=O)N[C@H]1CCOC1=O` [3OC10-HSL], the EC50 in [6] was 0.26 ± 0.16 µM; in assay [1], 0.21 ± 0.06 µM; in [7], more than 100 µM; in [2], 2.83 ± 1.61 µM; in assay [3] it was more than 100 µM; in [5] it was 4 ± 0.51 µM.

With `CCCCCCCCCC(=O)CC(=O)N[C@H]1CCOC1=O` [3OC12-HSL, N-3-oxo-dodecanoyl-L-homoserine lactone], in [7] (AHL 100 µM (Fig. S3)), the “effect on RhlR activity in E. coli” value is “does not affect”. The EC50 in assay [7] is more than 100 µM; in [3], more than 100 µM; in [5], 7.1 ± 2 µM.

`CCCCCCCCCCCC(=O)CC(=O)N[C@H]1CCOC1=O` [3OC14-HSL, N-3-oxotetradecanoyl-L-homoserine lactone]: the EC50 was 0.0125 ± 0.0045 µM in assay [1]; more than 100 µM in assay [8]; more than 100 µM in assay [7]; 1.26 ± 0.25 µM in assay [2]; more than 100 µM in assay [3]; 2.35 ± 0.66 µM in [4]. For the same molecule, in [5], the EC50 was more than 100 µM.

Regarding `CCCCCCCCCCCCCC(=O)CC(=O)N[C@H]1CCOC1=O` [3OC16-HSL], the concentration for a half-maximal effect (EC50) in assay [6] was 0.17 ± 0.07 µM; in assay [1], 0.13 ± 0.03 µM; in assay [8], more than 100 µM; in [7] it was more than 100 µM; in [2], 1.37 ± 0.27 µM; in [3], more than 100 µM. Moreover, the EC50 was 7.05 ± 1.88 µM in assay [4], more than 100 µM in assay [5] and more than 100 µM in [9].

As to `CCCC(O)CC(=O)N[C@H]1CCOC1=O` (stereo partly drawn) [3OHC6-HSL], the EC50 in [6], in [1], in assay [8], in assay [7], in [2] and in assay [4] was more than 100 µM in each case. In assay [9], the EC50 was more than 100 µM.

`CCCCCC(O)CC(=O)N[C@H]1CCOC1=O` (stereo partly drawn) [3OHC8-HSL, N-3-hydroxyoctanoyl-L-homoserine lactone]: the EC50 in [6] is 5.82 ± 1.49 µM; in assay [7], more than 100 µM; in assay [3], 21.2 ± 6.6 µM; in assay [4], more than 100 µM; in assay [5] it was more than 100 µM; in assay [9] it was more than 100 µM.

With `CCCCCCCC(O)CC(=O)N[C@H]1CCOC1=O` (stereo partly drawn) [3OHC10-HSL], the EC50 in assay [6] was 0.0299 ± 0.0134 µM; in assay [1] it was 7.91 ± 0.45 µM; in assay [7], more than 100 µM; in [2], 1.82 ± 0.07 µM; in assay [5], more than 100 µM.

Regarding `CCCCCCCCCCCC(O)CC(=O)N[C@H]1CCOC1=O` (stereo partly drawn) [3OHC14-HSL], the EC50 in assay [6] is 0.15 ± 0.04 µM; in assay [1] it was 0.2 ± 0.02 µM; in assay [8], more than 100 µM; in assay [7] it was more than 100 µM; in assay [2] it was 2.23 ± 0.73 µM; in assay [3] it was more than 100 µM. Moreover, the EC50 in [4] is 2.66 ± 0.68 µM; in [5] it was more than 100 µM.

With `CCCCCCCCCC(=O)N[C@H]1CCOC1=O` [C10-HSL, N-decanoyl-L-homoserine lactone], the EC50 in [1] was 8.67 ± 1.49 µM; in assay [7] it was more than 100 µM; in assay [3], more than 100 µM; in assay [5], 42 ± 7.6 µM.

Take `CCCCCCCCCCCC(=O)N[C@H]1CCOC1=O` [C12-HSL]: the 50% effective concentration (EC50) is 0.66 ± 0.07 µM in assay [1], more than 100 µM in assay [7], more than 100 µM in assay [3] and more than 100 µM in assay [5].

As for `CCCCCCCCCCCCCC(=O)N[C@H]1CCOC1=O` [C14-HSL], the EC50 in assay [6] was 0.0896 ± 0.0201 µM; in [1] it was 0.36 ± 0.13 µM; in assay [7] it was more than 100 µM; in [2], 0.97 ± 0.35 µM; in assay [3], more than 100 µM; in assay [5], more than 100 µM. Further, the EC50 in assay [9] is more than 100 µM.
